In test [1] the target is EGFR (UniProt P00533). The following applies: concentration not given here.
In test [2] the target is ROCK2 (UniProt O75116). In words: Inhibition of ROCK2 Kinase Activity. The settings on record: for inhibition: concentration not given here.
Test [3] addresses CDK2 (UniProt P24941). In words: Enzyme Assay. The settings on record: for inhibition: concentration not given here.
Test [4] concerns the target MAPK14 (UniProt Q16539). In words: Inhibition of MAPK14 Kinase Activity. The following applies: concentration not given here.

Sequence of EGFR (P00533 whole entry, looked up): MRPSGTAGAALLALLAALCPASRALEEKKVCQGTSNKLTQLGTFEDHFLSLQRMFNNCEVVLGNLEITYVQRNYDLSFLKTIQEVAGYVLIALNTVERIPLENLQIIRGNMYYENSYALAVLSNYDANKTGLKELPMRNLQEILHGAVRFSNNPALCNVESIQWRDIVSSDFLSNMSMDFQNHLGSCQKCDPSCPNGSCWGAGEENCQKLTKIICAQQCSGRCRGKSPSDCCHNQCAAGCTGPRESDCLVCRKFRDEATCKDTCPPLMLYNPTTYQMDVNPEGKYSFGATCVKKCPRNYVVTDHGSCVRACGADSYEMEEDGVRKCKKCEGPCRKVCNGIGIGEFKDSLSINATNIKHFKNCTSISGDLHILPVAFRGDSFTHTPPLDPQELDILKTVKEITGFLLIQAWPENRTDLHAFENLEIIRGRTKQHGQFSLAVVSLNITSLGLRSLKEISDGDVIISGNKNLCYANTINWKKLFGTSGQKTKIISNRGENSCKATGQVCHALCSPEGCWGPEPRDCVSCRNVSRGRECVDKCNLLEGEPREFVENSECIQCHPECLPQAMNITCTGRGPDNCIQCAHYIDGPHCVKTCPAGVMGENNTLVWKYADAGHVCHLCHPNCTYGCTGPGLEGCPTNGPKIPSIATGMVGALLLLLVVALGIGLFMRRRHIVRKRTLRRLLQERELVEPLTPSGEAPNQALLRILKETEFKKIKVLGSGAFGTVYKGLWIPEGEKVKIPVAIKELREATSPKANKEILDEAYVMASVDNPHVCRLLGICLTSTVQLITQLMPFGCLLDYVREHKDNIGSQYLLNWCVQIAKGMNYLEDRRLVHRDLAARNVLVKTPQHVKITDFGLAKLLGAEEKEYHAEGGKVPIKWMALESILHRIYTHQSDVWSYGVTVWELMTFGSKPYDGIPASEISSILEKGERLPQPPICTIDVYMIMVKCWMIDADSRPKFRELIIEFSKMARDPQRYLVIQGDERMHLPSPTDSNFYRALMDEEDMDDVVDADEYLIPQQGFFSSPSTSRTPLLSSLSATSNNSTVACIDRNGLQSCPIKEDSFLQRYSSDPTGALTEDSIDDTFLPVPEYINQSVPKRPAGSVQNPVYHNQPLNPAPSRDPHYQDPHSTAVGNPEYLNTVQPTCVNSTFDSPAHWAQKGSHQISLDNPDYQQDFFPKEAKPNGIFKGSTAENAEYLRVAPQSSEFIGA
Sequence of ROCK2 (O75116 whole entry, looked up): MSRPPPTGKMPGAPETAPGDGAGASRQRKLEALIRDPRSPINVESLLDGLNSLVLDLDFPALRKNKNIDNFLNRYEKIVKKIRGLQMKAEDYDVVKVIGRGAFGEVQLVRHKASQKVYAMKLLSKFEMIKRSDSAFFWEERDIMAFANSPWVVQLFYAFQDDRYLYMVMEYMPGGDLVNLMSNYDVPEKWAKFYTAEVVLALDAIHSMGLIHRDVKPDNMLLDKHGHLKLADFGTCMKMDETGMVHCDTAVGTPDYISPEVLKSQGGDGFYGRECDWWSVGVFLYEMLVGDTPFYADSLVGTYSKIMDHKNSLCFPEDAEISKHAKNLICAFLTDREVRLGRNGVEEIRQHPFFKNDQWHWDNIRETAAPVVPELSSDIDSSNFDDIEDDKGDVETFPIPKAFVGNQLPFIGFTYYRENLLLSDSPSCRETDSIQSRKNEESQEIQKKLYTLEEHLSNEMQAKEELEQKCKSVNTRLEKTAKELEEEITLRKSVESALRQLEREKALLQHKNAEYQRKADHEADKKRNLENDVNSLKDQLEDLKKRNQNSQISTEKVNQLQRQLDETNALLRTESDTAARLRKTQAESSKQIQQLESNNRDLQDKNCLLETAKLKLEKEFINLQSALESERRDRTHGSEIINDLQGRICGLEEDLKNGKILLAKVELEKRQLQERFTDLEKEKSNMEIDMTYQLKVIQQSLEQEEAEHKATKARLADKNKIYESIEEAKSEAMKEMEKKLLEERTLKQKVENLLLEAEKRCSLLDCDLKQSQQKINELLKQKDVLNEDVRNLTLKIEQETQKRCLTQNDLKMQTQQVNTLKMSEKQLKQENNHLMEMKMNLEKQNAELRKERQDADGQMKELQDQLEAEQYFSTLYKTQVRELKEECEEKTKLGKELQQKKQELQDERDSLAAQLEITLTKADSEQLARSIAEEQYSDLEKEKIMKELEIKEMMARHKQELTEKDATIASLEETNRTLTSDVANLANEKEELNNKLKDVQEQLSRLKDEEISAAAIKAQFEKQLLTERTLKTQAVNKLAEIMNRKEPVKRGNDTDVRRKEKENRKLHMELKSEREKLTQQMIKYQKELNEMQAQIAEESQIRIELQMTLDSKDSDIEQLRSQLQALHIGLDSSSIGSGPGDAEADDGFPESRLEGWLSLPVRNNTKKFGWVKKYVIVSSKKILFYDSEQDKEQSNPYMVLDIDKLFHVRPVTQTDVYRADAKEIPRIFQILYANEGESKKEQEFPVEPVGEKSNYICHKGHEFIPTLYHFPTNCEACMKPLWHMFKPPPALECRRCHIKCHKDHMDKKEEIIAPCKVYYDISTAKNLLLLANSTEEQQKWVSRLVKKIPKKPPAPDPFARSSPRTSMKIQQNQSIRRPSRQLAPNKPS
Sequence of MAPK14 (Q16539 whole entry, looked up): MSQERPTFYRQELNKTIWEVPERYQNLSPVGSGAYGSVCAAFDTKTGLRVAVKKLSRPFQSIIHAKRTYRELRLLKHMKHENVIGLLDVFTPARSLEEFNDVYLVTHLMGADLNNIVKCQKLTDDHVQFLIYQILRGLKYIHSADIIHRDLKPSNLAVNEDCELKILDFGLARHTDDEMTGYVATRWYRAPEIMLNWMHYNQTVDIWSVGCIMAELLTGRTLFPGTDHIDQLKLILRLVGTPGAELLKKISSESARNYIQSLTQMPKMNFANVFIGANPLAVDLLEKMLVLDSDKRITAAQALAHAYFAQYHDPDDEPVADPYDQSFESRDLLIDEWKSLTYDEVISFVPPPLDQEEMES

For the compound `COc1ccc(-c2cncc(NCc3cccc(O)c3)c2)cc1OC`, the inhibition in test [1] lay in the range of 50 to 90%.

For `Oc1cccc(CNc2cncc(-c3ccc(N4CCOCC4)cc3)c2)c1`, in test [1], the inhibition lay in the range of 50 to 90%.

Regarding `Oc1cccc(CNc2cncc(-c3cccc(O)c3)c2)c1`, the inhibition in test [1] and in test [2] was 50 to 90% throughout.

`Oc1ccc(-c2cncc(NCc3cccc(O)c3)c2)cc1`: the values for the inhibition in test [3] and in test [1] were more than 90% and 50 to 90%, respectively. The IC50 in test [2] was less than 1000 nM.

`Oc1cccc(CNc2cncc(-c3ccccc3)c2)c1` came in with an inhibition in test [1] of 50 to 90%.

`Oc1ccc(-c2cncc(NCc3ccc4c(c3)OCO4)c2)cc1`: the inhibition in test [2] lay within 50 to 90%.

Turning to `CN(Cc1cccc(O)c1)c1cncc(-c2cccc(O)c2)c1`, in test [2], the inhibition is 50 to 90%.

As for `COC(=O)c1cccc(-c2cncc(NCc3cccc(O)c3)c2)c1`, the inhibition in test [3] was more than 90%; in test [2] it was 50 to 90%.

In the case of `Oc1cccc(CCNc2cncc(-c3cccc(O)c3)c2)c1`, in test [1], the inhibition is more than 90%.

The compound `NC(=O)c1cccc(-c2cncc(NCc3cccc(O)c3)c2)c1` came in with an inhibition in test [1] of 50 to 90%. This compound registered an IC50 in test [2] of less than 1000 nM.

In test [1], `Oc1cccc(CNc2cncc(-c3cccnc3)c2)c1` gave an inhibition of 50 to 90%.

With `O=C(O)c1cccc(-c2cncc(NCc3cccc(O)c3)c2)c1`, the inhibition in test [1] fell in the range of 50 to 90%.

As to `Oc1cccc(CNc2cncc(Cc3cccc(O)c3)c2)c1`, the inhibition was more than 90% in test [3] and 50 to 90% in test [2].

Compound `O=C(NCCO)c1cccc(-c2cncc(NCc3cccc(O)c3)c2)c1` came in with an inhibition in test [1] of 50 to 90%.

As to `CS(=O)(=O)Nc1cccc(-c2cncc(NCc3cccc(O)c3)c2)c1`, in test [1], the inhibition lay in the range of 50 to 90%.

With `Nc1cccc(-c2cncc(NCc3cccc(O)c3)c2)c1`, the inhibition in test [1] fell in the range of 50 to 90%.

Consider `CC(=O)Nc1cccc(-c2cncc(Nc3ccccc3F)c2)c1`, for which the inhibition in test [1] lay within 50 to 90%.

Take `CN(C)CCNC(=O)c1cccc(-c2cncc(NCc3cccc(O)c3)c2)c1`: in test [1], the inhibition lay in the range of 50 to 90%.

`Oc1cccc(CNc2cncc(-c3cccc(O)c3F)c2)c1`: the inhibition in test [1] lay within 50 to 90%.

`OCc1cccc(-c2cncc(NCc3cccc(O)c3)c2)c1` gave an inhibition in test [1] of 50 to 90%.

`OCc1ccc(-c2cncc(NCc3cccc(O)c3)c2)cc1`: the inhibition in test [1] and in test [2] was 50 to 90% each time.

`CC(=O)Nc1cccc(-c2cncc(Nc3ccc(F)cc3)c2)c1` came in with an inhibition in test [1] of 50 to 90%.

Take `COc1cccc(-c2cncc(NCc3cccc(O)c3)c2)c1`: the IC50 in test [3] was less than 1000 nM. In addition, the inhibition in test [1] and in test [2] was 50 to 90% throughout.

For the compound `Cc1ccc(CNc2cncc(-c3cccc(O)c3)c2)cc1O`, the inhibition in test [1] and in test [2] was 50 to 90% throughout.

In test [2], `Oc1ccc(-c2cncc(NCc3ccc(F)c(F)c3)c2)cc1` had an inhibition of 50 to 90%.

`COc1cccc(-c2cncc(NCc3cccc(O)c3)c2)c1F` returned an inhibition in test [1] of 50 to 90%.

On to `O=C(Nc1cncc(-c2cccc(O)c2)c1)c1cccc(O)c1`, for which, in test [1], the inhibition was more than 90%.

On to `COC(=O)c1cccc(CNc2cncc(-c3cccc(O)c3)c2)c1`, for which the inhibition in test [1] was 50 to 90%.

Take `CC(=O)Nc1cccc(-c2cncc(NCc3cccc(O)c3)c2)c1`: the inhibition in test [1] and in test [4] was 50 to 90% each time.

Source of the values: the Kinase Knowledgebase extract (Sharma et al. 2016).
